Experimental data: BigSolDB 2.1

O=C(O)COc1ccc(Cl)cc1Cl
solubility (mole fraction)
Conditions | in tetrachloromethane | in toluene
294.15 K | – | 0.00118
298.65 K | – | 0.00178
303.15 K | – | 0.00264
303.65 K | 4.99e-05 | –
308.45 K | – | 0.00399
310.65 K | 0.000131 | –
313.25 K | – | 0.00547
313.55 K | 0.000193 | –
318.75 K | 0.000414 | 0.00821
323.05 K | 0.00074 | –
323.15 K | – | 0.0109
328.25 K | 0.00146 | –
328.85 K | – | 0.015
332.95 K | 0.00259 | –
335.35 K | – | 0.0207
338.05 K | 0.00497 | 0.0235
